{"source": "patent US10617763B2", "about": "“Compositions and methods for the treatment of presbyopia” (Presbyopia Therapies, LLC, priority 2013, dated 2020)", "key": {"eye [1]": {"tested_on": "eye", "conditions": "cited from earlier work"}, "eye [2]": {"tested_on": "eye", "assay": "Compositions containing mannitol with various nonionic surfactants (Example 15, Table 10)", "parameters": "species or system human", "conditions": "in vivo", "text": "Example 15. Use of a Compound Containing Mannitol with Various Nonionic Surfactants Compositions\nOf those tested only Brij® 35 was marginal due to the significant corneal irritation, hyperemia and […] that resulted.\nDuration was excellent for each nonionic surfactant tested."}, "eye [3]": {"tested_on": "eye", "conditions": "for indoor night vision: pH 7.5; for dimming: pH 7.0", "excerpt": "However, because α-2 agonists are shifted to their ionized equilibrium an acidic pH is somewhat offset by the fact such agonists exert greater affect at neutral or alkaline pH. Therefore each α-2 agonist has a preferred pH range depending on its lipophilicity and pKa value when added to the inventive compositions with aceclidine."}, "eye [4]": {"tested_on": "eye", "assay": "Effect of concentration of aceclidine, brimonidine, guanfacine, fadolmidine, tropicamide and additives (Example 3)", "type": "in vivo, human", "experimental": "All percentages are w/v. Scores for nasal congestion, stinging initial, stinging, 3 min, redness initial, redness 15 min, whitening, pain and overall are out of 4.\n“pt” reflects size of print materials, 4 being equivalent to 20/20 vision and 3 to 20/15 vision.\nD/C stands for discontinued after eye washing due to intolerable stinging.\n(§1) All baseline vision data was based on vision corrected with distance contact lenses.\nAB4T and AB6T were repeated both monocularly and binocularly."}, "presbyopic subjects": {"tested_on": "presbyopic subjects", "assay": "Effect of aceclidine on vision of subjects aged 47 to 67 years (Example 1)", "type": "in vivo, human", "conditions": "for L Post Dist / L Post Near / R Post Dist / R Post Near: Post Gtt 15″; for L Post Dist: left eye distance vision; for L Post Near: left eye near vision; for R Post Dist: right eye distance vision; for R Post Near: right eye near vision; for Effect: duration of effect", "experimental": "Example 1 Effect of Aceclidine on Vision of Subjects Aged 47 to 67 Years\nAs aceclidine is an […], the clinical effectiveness may vary with different ratios. For the present studies a nearly exact 50:50 ratio of stereoisomers was measured as best determined by polarimetry.\nAfter administration of the composition all subjects experienced an improvement in their near vision that lasted from 7 to 12 hours."}, "eye [5]": {"tested_on": "eye", "assay": "Effect of concentration of aceclidine and tropicamide, topical instillation (Example 2)", "type": "in vivo, human", "text": "as §1"}, "[6]": {"tested_on": "emmetrope over the age of 45", "assay": "Effects of pilocarpine and aceclidine with or without tropicamide and carrier on near and distance vision (FIG. 1)", "type": "in vivo, human", "text": "Subject is an emmetrope over the age of 45 with a baseline near vision of 20.100 and baseline distance vision of 20.20. Topical administration to the eye of 1% w/v pilocarpine in saline solution results in an improvement of near vision to 20.40 (8a), however this improvement comes at the expense of a reduction in distance vision to 20.100 (8b). […] A proper drug carrier can also have a beneficial effect."}, "eye [7]": {"tested_on": "eye", "assay": "Modulation of aceclidine concentrations in a preferred embodiment (Example 6)", "type": "in vivo, human", "experimental": "Example 6 Modulation of Aceclidine Concentrations in a Preferred Embodiment\nFor 1.35% w/v aceclidine— • Stinging on topical instillation 0.25/4.0 (lasting about 2-5 seconds); • Induced redness at 10 minutes: 1.0 to 1.5/4.0; • Induced redness at 30 minutes: 0.0 to 0.25/4.0; • Comfort: very high. • Wetting: very high, the eye maintaining sensation of improved wetting for most of a 24 hour period after a single topical instillation. • Depth of Focus distance: excellent. • Depth of Focus near: excellent.\nIn testing the above formulations on several subjects it was discovered that there is a slight range in clinical effect depending on the concentration of aceclidine, where 1.35%-1.55% w/v aceclidine is preferred, but for which 1.35% w/v and 1.45% w/v confer the desired benefits on most subjects.\nFurther, it is discovered that the clinical effect of 1.35% w/v aceclidine can be improved when instilled as follows: […]"}, "[8]": {"assay": "Stability of aceclidine in cold chain storage, HPLC (Example 10)", "type": "physicochemical", "conditions": "Example 10 composition", "experimental": "Example 10 Stabile Aceclidine Formulations\n20 samples of the above composition were divided evenly and stored at 25° C. and 4° C. Prior to storage, initial concentrations of aceclidine were measured using […] (“HPLC”). The amount of aceclidine in each solution was calculated by the area under the principal peak compared to a reference solution of aceclidine. Samples were then subject to storage for 3 months. Aceclidine measurements were taken at 1, 2 and 3 months."}, "[9]": {"conditions": "aceclidine 1.1% w/v plus 0.125% w/v tropicamide (subjects 4 and 5)"}, "[10]": {"conditions": "aceclidine 1.5% w/v, same vehicle, one subject"}}, "note": "Values joined by “and” are separate entries in the source; they are usually repeats but may differ in a detail not shown here. Identical values can stand only once. Like-named read-outs stand apart in the source and are kept apart here."}
{"compound": "Brc1c(NC2=NCCN2)ccc2nccnc12", "note": "[brimonidine]", "values": [{"measurement": "rebound redness, patients", "setting": "eye [1]; brimonidine 0.20% w/v (Alphagan®) twice daily", "value": 25, "unit": "%"}, {"measurement": "tachyphylaxis of pupil modulation, treated subjects", "setting": "eye [1]; brimonidine 0.20% w/v topically for night vision, within four weeks of use", "value": "~100", "unit": "%"}]}
{"compound": "Poloxamer 188", "values": [{"measurement": "Redness 1 hr", "setting": "eye [2]", "value": "0.25-2.5"}, {"measurement": "Stinging", "setting": "eye [2]", "value": "0-2"}]}
{"compound": "Tyloxapol", "values": [{"measurement": "Redness 1 hr", "setting": "eye [2]", "value": "0.25-2.5"}, {"measurement": "Stinging", "setting": "eye [2]", "value": "0-2"}]}
{"compound": "Polysorbate 80", "values": [{"measurement": "Redness 1 hr", "setting": "eye [2]", "value": 0.5}, {"measurement": "Stinging", "setting": "eye [2]", "value": 0.25}]}
{"compound": "tropicamide", "values": [{"measurement": "indoor night vision", "setting": "eye [3]; 0.035% w/v tropicamide in 1.55% w/v aceclidine composition", "value": "slight dimming"}, {"measurement": "dimming", "setting": "eye [3]; 0.040% w/v tropicamide in 1.53% or 1.45% w/v aceclidine composition", "value": "moderate dimming"}, {"measurement": "indoor night vision", "setting": "eye [3]; 0.042% w/v tropicamide in 1.55% w/v aceclidine composition", "value": "normal indoor night vision"}, {"measurement": "dimming", "setting": "eye [3]; 0.044% w/v tropicamide in 1.53% or 1.45% w/v aceclidine composition", "value": "dimming became almost undetectable"}, {"measurement": "brow ache", "setting": "eye [3]; tropicamide 0.01% w/v with aceclidine", "value": "slightly reduce brow ache"}, {"measurement": "brow ache", "setting": "eye [3]; tropicamide 0.030% w/v with aceclidine", "value": "further reduce brow ache"}, {"measurement": "brow ache", "setting": "eye [3]; tropicamide 0.04% to about 0.07% w/v with aceclidine", "value": "completely eliminate brow ache"}]}
{"compound": "CC(=O)OC1CN2CCC1CC2", "note": "(racemic) [Aceclidine, aceclidine]", "values": [{"measurement": "near vision improvement", "setting": "eye [4]; aceclidine 1.25% w/v (not shown)", "value": "20.25-20.30"}, {"measurement": "duration of corrected near and distance vision to 20.20 or better", "setting": "eye [4]; aceclidine 1.55% w/v", "value": "at least 6 hours"}, {"measurement": "size of the pupil", "setting": "eye [4]; aceclidine 1.55% w/v, 30 minutes after topical instillation", "value": "about 1.63 mm"}, {"measurement": "duration (hrs)", "setting": "eye [4]; in vivo", "value": "about 7.5 hrs"}, {"measurement": "L Post Dist", "setting": "presbyopic subjects; [9]", "value": "20.15 and 20.20"}, {"measurement": "L Post Dist", "setting": "presbyopic subjects; [10]", "value": "20.20 (2×) and 20.30 and 20.25 (2×)"}, {"measurement": "L Post Near", "setting": "presbyopic subjects; [9]", "value": "20.15 and 20.25"}, {"measurement": "L Post Near", "setting": "presbyopic subjects; [10]", "value": "20.15 (3×) and 20.30 and 20.20"}, {"measurement": "R Post Dist", "setting": "presbyopic subjects; [9]", "value": "20.15 and 20.20"}, {"measurement": "R Post Dist", "setting": "presbyopic subjects; aceclidine 1.5% w/v in 5.5% HPβCD, 0.75% CMC, 0.25% NaCl, 0.01% BAK, one subject", "value": "20.20 (3×) and 20.25 (2×)"}, {"measurement": "R Post Near", "setting": "presbyopic subjects; [9]", "value": "20.20 and 20.25"}, {"measurement": "R Post Near", "setting": "presbyopic subjects; [10]", "value": "20.15 (3×) and 20.20 and 20.25"}, {"measurement": "Effect", "setting": "presbyopic subjects; [9]", "value": "12.00 h and 7.00 h"}, {"measurement": "Effect", "setting": "presbyopic subjects; [10]", "value": "8.00 h (4×) and 9.00 h"}, {"measurement": "anterior chamber shallowing", "setting": "eye [3]; with further inclusion of a cycloplegic agent", "value": 0.04, "unit": "mm"}, {"measurement": "Time (hr)", "setting": "eye [5]; duration of the effect", "value": "at least 10 hr"}, {"measurement": "Miosis (OU) (1 hr)", "setting": "eye [5]; pupil size, both eyes, 1 hour after topical instillation, baseline pupil 3 mm photopic, 5 mm mesopic", "value": 1.63, "unit": "mm"}, {"measurement": "time period of near vision improvement", "setting": "[6]; 1.55% w/v aceclidine in saline solution", "value": 6, "unit": "h"}, {"measurement": "near vision", "setting": "[6]; aceclidine in carrier plus 0.042% w/v tropicamide", "value": 20.15}, {"measurement": "near vision", "setting": "[6]; aceclidine in carrier: 5.5% HPβCD, 0.75% CMC, 0.25% NaCl, 0.01% BAK", "value": "better than 20.20"}, {"measurement": "distance vision", "setting": "[6]; miotic in saline solution (1% w/v pilocarpine; 1.55% w/v aceclidine), baseline distance vision 20.20", "value": "without any effect on the baseline distance vision"}, {"measurement": "near vision", "setting": "[6]; miotic in saline solution (1% w/v pilocarpine; 1.55% w/v aceclidine), baseline near vision 20.100", "value": 20.40}, {"measurement": "Comfort", "setting": "eye [7]; 1.35% w/v aceclidine", "value": "very high"}, {"measurement": "Depth of Focus distance", "setting": "eye [7]; 1.35% w/v aceclidine", "value": "excellent"}, {"measurement": "Depth of Focus near", "setting": "eye [7]; 1.35% w/v aceclidine", "value": "excellent"}, {"measurement": "Stinging on topical instillation", "setting": "eye [7]; 1.35% w/v aceclidine in the preferred embodiment of Example 6, lasting about 2-5 seconds", "value": "0.25 /4.0"}, {"measurement": "aceclidine remaining, 4° C., 1 month", "setting": "[8]", "value": 93, "unit": "%"}, {"measurement": "aceclidine remaining, 4° C., 2 months", "setting": "[8]", "value": 92, "unit": "%"}, {"measurement": "aceclidine remaining, 4° C., 3 months", "setting": "[8]", "value": 88, "unit": "%"}, {"measurement": "aceclidine remaining, 4° C., Initial", "setting": "[8]", "value": 100, "unit": "%"}, {"measurement": "aceclidine remaining, 25° C., 1 month", "setting": "[8]", "value": 92, "unit": "%"}, {"measurement": "aceclidine remaining, 25° C., 2 months", "setting": "[8]", "value": 75, "unit": "%"}, {"measurement": "aceclidine remaining, 25° C., 3 months", "setting": "[8]", "value": 50, "unit": "%"}, {"measurement": "aceclidine remaining, 25° C., Initial", "setting": "[8]; pH about 4.75", "value": 100, "unit": "%"}]}
{"compound": "CC[C@@H]1C(=O)OC[C@@H]1Cc1cncn1C", "note": "[pilocarpine]", "values": [{"measurement": "distance blur", "setting": "eye [1]; pilocarpine instilled monocularly", "value": "2-3 lines"}, {"measurement": "pupil size", "setting": "eye [1]; upon instillation of 1.0% pilocarpine, most subjects", "value": "≥ 2.3", "unit": "mm"}]}
{"compound": "Polyoxyl 35 castor oil", "values": [{"measurement": "Redness 1 hr", "setting": "eye [2]", "value": 0.25}, {"measurement": "Stinging", "setting": "eye [2]", "value": 0}]}
{"compound": "Poloxamer 407", "values": [{"measurement": "Redness 1 hr", "setting": "eye [2]", "value": 1}, {"measurement": "Stinging", "setting": "eye [2]", "value": 0.5}]}
